According to US20240301319A1, “PERFUMING COMPOSITIONS” (FIRMNICH SA, priority 2017, published 2024):
Each block holds one compound with its values, some of them ahead of it.

Legend:
[1] = Odor threshold and odor value of perfuming compounds (Tables 4 to 10)
[2] = Volatility of perfuming compounds (Tables 4 to 10), with top/middle/bottom note type; type: physicochemical
Experimental: In some aspects, the first perfume accord comprises perfuming compounds having a volatility ranging from 70,000 to 100 μg/l in air. In some aspects, perfuming compounds having a volatility ranging from 70,000 to 100 μg/l in air are referred to as “top notes”.
In some aspects, the second perfume accord comprises perfuming compounds having a volatility ranging from 99 to 50 μg/l in air. In some aspects, perfuming compounds having a volatility ranging from 99 to 50 μg/l in air are referred to as “middle notes”.
In some aspects, the third perfume accord comprises perfuming compounds having a volatility ranging from 49 to 0.1 μg/l in air. In some aspects, perfuming compounds having a volatility ranging from 49 to 0.1 μg/l in air are referred to as “bottom notes”.
Tables 4 to 10 describe top, middle and bottom note perfuming compounds for watery, green, fruity, citrus, sweet, gourmand and woody notes respectively.

[3] = Table 6, perfuming compounds having a fruity note
[4] = perfuming compounds having a green note
[5] = Table 6, perfuming compounds having a fruity note, note type by volatility
[6] = note type (Top/Middle/Bottom) by volatility, perfuming compounds having a green note
[7] = Table 10, perfuming compounds having a woody note, note type by volatility
[8] = Table 7, citrus note, equals volatility divided by odor threshold
[9] = Table 7, citrus note, top, middle or bottom note

Compound: COc1ccc(C(C)=O)cc1 [1-(4-METHOXYPHENYL)-1-ETHANONE″]
Odor Threshold (μg/l air) [1, 4]: 1.41E−04 μg/l air
Type [2, 6]: Middle
Volatility (μg/l air) [2, 4]: 50.21 μg/l air

Compound: CC1CC[C@@]2(O1)C(C)(C)CCC[C@@]2(C)O (mixture of isomers)
Odor Threshold ([1]; Table 10, woody note): 5.15E−04 μg/l air
Type [2, 7]: Middle
Volatility ([2]; Table 10, woody note): 84.04 μg/l air

Compound: O=C1CCC2(CCCCC2)O1 [1-oxaspiro[4.5]decan-2-one]
Odor Threshold ([1]; Table 9, gourmand note): 2.90E−04 μg/l air
Volatility ([2]; Table 9, gourmand note): 62.86 μg/l air
Type ([2]; Table 9, perfuming compounds having a gourmand note, note type by volatility): Middle

Compound: C=C/C=C/C=C\CCCCC
Odor Threshold (μg/l air) [1, 4]: 3.76E−05 μg/l air
Type [2, 6]: Top
Volatility (μg/l air) [2, 4]: 1247.28 μg/l air

Compound: (Z)-3,7-DIMETHYL-2,6-OCTADIENAL (A) + (E)-3,7-DIMETHYL-2,6-OCTADIENAL (B)
Odor Threshold (μg/l air) ([1]; Table 7, citrus note): 4.12E−03 μg/l air
Odor Value [1, 8]: 4.92E+04
Volatility (μg/l air) ([2]; Table 7, citrus note): 202.66 μg/l air
Type [2, 9]: Top

Compound: COC(OC)C(C)(C)CC=C(C)C
Odor Threshold ([1]; Table 10, woody note): 1.26E−02 μg/l air
Type [2, 7]: Top
Volatility ([2]; Table 10, woody note): 1311.32 μg/l air

Now from value to compound, other results behind:

Volatility [2, 3]: 111.67 μg/l air
Type [2, 6]: Top
Volatility (μg/l air) [2, 4]: 111.67 μg/l air
Compound: CCOC(=O)C12CCCC1C1CCC2C1 (centres unmarked)
Odor Threshold [1, 3]: 6.87E−05 μg/l air
Odor Value [1, 3]: 1.63E+06
Odor Threshold (μg/l air) [1, 4]: 6.87E−05 μg/l air
Type [2, 5]: TOP (perfuming compounds having a volatility ranging from 70,000 to 100 μg/l in air are referred to as “top notes”)

Type [2, 6]: Top
Volatility (μg/l air) [2, 4]: 2431.73 μg/l air
Compound: CC/C=C\CCCCC=O [(Z)-6-NONENAL]
Odor Threshold (μg/l air) [1, 4]: 2.91E−05 μg/l air

Volatility [2, 3]: 295.22 μg/l air
Type [2, 6]: Top
Volatility (μg/l air) [2, 4]: 295.22 μg/l air
Compound: C=C(C)CC(C(C)=O)C(=O)OCC (racemic)
Odor Threshold (μg/l air) [1, 4]: 3.64E−03 μg/l air
Type [2, 5]: TOP (perfuming compounds having a volatility ranging from 70,000 to 100 μg/l in air are referred to as “top notes”)

Volatility (μg/l air) ([2]; Table 7, citrus note): 2.10 μg/l air
Type [2, 9]: Bottom
Compound: 9-ETHYLIDENE-3-OXATRICYCLO[6.2.1.0(2,7)]UNDECAN-4-ONE (A) + 10-ETHYLIDENE-3-OXATRICYCLO[6.2.1.0(2,7)] . . . (B)
Odor Threshold (μg/l air) ([1]; Table 7, citrus note): 1.42E−04 μg/l air
Odor Value [1, 8]: 1.48E+04

Type [2, 6]: Bottom
Volatility (μg/l air) [2, 4]: 22.29 μg/l air
Compound: CC(C)[C@@H]1CC[C@@H](C)CC1=NO
Odor Threshold (μg/l air) [1, 4]: 5.52E−05 μg/l air

Volatility [2, 3]: 38.43 μg/l air
Type [2, 5]: Bottom
Type [2, 6]: Bottom
Volatility (μg/l air) [2, 4]: 38.43 μg/l air
Compound: C=CCCC(=O)C1=CCCC(C)(C)C1 [1-(5,5-dimethyl-1-cyclohexen-1-yl)-4-penten-1-one]
Odor Threshold [1, 3]: 1.64E−06 μg/l air
Odor Value [1, 3]: 2.34E+07
Odor Threshold (μg/l air) [1, 4]: 1.64E−06 μg/l air

Type [2, 6]: Top
Volatility (μg/l air) [2, 4]: 1617.21 μg/l air
Compound: COc1nccnc1CC(C)C [PYRAZOBUTYLE]
Odor Threshold (μg/l air) [1, 4]: 7.20E−07 μg/l air

Volatility [2, 3]: 1.44 μg/l air
Type [2, 5]: Bottom
Compound: CCCCCCCCC1CCC(=O)O1 (racemic) [(+−)-5-octyldihydro-2(3H)-furanone]
Odor Threshold [1, 3]: 2.85E−05 μg/l air
Odor Value [1, 3]: 5.05E+04

Volatility (μg/l air) ([2]; Table 7, citrus note): 2.12 μg/l air
Type [2, 9]: Bottom
Compound: CCCCC[C@H]1C(=O)CC[C@@H]1CC(=O)OC (racemic) [methyl 2-((1RS,2RS)-3-oxo-2-pentylcyclopentyl)acetate]
Odor Threshold (μg/l air) ([1]; Table 7, citrus note): 5.77E−04 μg/l air
Odor Value [1, 8]: 3.67E+03
